The text below walks through data of PMC9322082, “Improvement in Solubility–Permeability Interplay of Psoralens from Brosimum gaudichaudii Plant Extract upon Complexation with Hydroxypropyl-β-cyclodextrin” (Molecules, 2022).

The nature of data set [1]: Phase solubility studies with HP-β-CD in KRB buffer. In kind it is physicochemical. The conditions noted are these: for solubility at 7 d: KRB buffer, 37 °C, thermodynamic from solid. The method, then: Phase solubility studies were performed in KRB buffer solutions (pH 7.4), as described by Higuchi and Connors. […] Samples were centrifuged (4000 rpm, 5 min) and filtered (Nylon filter; 0.45 µm) prior to the psoralens content analysis by the HPLC-DAD validated method.
The complexation efficiency (CE) was determined by using the slope of the linear phase solubility diagram as follows:CE = slope/(1 − slope)(2)

Data set [2] in a line: Ex vivo rat jejunal permeability (MTS-Snapwell system, A–B). In kind it is in vitro ADME. The conditions noted are these: female, Wistar, rat. The procedure:
(§1) Study protocol for female Wistar rats (12–14 weeks old) was approved by the Ethics Committee on Animal Use (#066/15) at the Federal University of Goiás, Goiás, Brazil. One week before starting the experiment, all animals were acclimatized at controlled conditions with regulated access to a standard food (22 ± 2 °C, 12-h light/dark cycle). After this, they fasted for 12 h with free access to water. All animals (body weight = 215 ± 12 g) were then anesthetized using a mixture of ketamine/xylazine (90.0/7.5 mg/kg). Rat jejunum was removed and immediately placed into an ice-cold KRB solution. The jejunum (20 mm) seromuscular layer was carefully stripped off from the membrane and mounted in the MTS-Snapwell system. Next, unidirectional drug transport was measured from the apical to basolateral side (A–B).
(§2) Sample aliquots (400 µL) were placed in the donor compartment (apical side).
(§3) Drug transport was measured by collecting samples (500 µL) from the receiver chamber (basolateral side) at 0, 20, 30, 40, 60, 90, and 120 min. Receiver samples were replaced with equal volume of fresh KRB solution (37 °C). The system was maintained on a plate shaker (60 rpm) inside a humidified incubator (37 ± 0.5 °C) in a controlled atmosphere (95% O2, and 5% CO2), before and during the transport experiment. Samples were analyzed by the HPLC-DAD validated method.
(§4) The change in donor and receiver concentrations was taken into consideration when the apparent permeability coefficient (Papp) was calculated using to the following equation:Papp = dQ/dt(1/CD A)(3) where dQ/dt is the appearance rate of the drug in the receiver compartment, CD is the concentration of the drug in the donor chamber at each sample interval, and A is the surface area (0.1 cm^2) of the tissue segment. The initial concentration of the drug in the donor compartment was determined experimentally, and donor concentrations at each time point were obtained by the calculation of the mass balance.
(§5) Integrity of intestinal tissue segments mounted in the MTS-Snapwell system was assessed by measuring the transepithelial electrical resistance (TEER) using the KRB solution at 37 °C as the conducting medium. Viable intestinal segments (>30 Ω·cm^2) were mounted on the permeation apparatus and subjected to a preincubation period (30 min) under a controlled atmosphere (95% O2 and 5% CO2) before starting the experiments.

The test system of data set [3] is rat jejunum. The description is as above. In kind it is in vitro ADME. The method, then:
as §1, §2, §3, §4, §5

Data set [4] in a line: Preliminary in vivo studies in rats (plasma AUC). The conditions noted are these: rat, n = 3.
Data set [5] in a line: Ex vivo rat jejunal permeability (MTS-Snapwell system, A–B). The conditions noted are these: female, Wistar, pH 7.4, pure compound, KRB, without stirring (0 rpm). In kind it is in vitro ADME.
The test system of data set [6] is rat jejunum. Details: method as in PMID 32942105. The conditions noted are these: 0.58 mM; BCS low/high permeability class boundary marker; n = 41; cited from earlier work.
The subject of another data set is jejunal tissue. Put plainly: Viability of intestinal tissue segments by TEER. In kind it is in vitro ADME, rat. The method, then: The effects of HP-β-CD on the viability of intestinal tissue segments mounted in the MTS-Snapwell system was evaluated during incubation time (120 min) at 37 °C. For this purpose, TEER values in the presence and absence of 20% (w/w) HP-β-CD were compared.
as §5

Setting [7] is: pH 7.4, marker in EBGT plant extract, HP-β-CD 70 mM.
Where [8] appears, read: pH 7.4, marker in EBGT plant extract, KRB solution without HP-β-CD.
Setting [9] is: pH 7.4, pure compound, HP-β-CD 70 mM.
Where [10] appears, read: pH 7.4, pure compound, KRB solution without HP-β-CD, stirring 60 rpm, 120 min.

Converted amounts (≈) assume the structure as drawn. “And” between values parts separate entries of the source, which are not always exact repeats. Equal values may be shown once. Read-outs that look alike come from different tables or passages of the source.

Broadly, the solubility is how much of the substance goes into solution per volume. By Papp is commonly meant the rate of passage across a membrane or cell layer, normalised by area and donor concentration. As a reminder, the AUC is concentration integrated over time. In the case of `COc1c2ccoc2cc2oc(=O)ccc12` [5-MOP, 5-methoxypsoralen], in data set [1] (EBGT marker vs pure compound), the “Kc fold lower in EBGT compared to pure compound” value is about 1.8 fold. Also, the solubility at 7 d was determined as 38 ± 2 µM (≈ 8.22 µg/mL) in data set [1] (pH 7.4, aqueous buffer, marker in EBGT plant extract (9.0 mg/mL), KRB pH 7.4, 37 °C, absence of HP-β-CD, read-out: intrinsic solubility (S0) in EBGT); 32 ± 1 µM (≈ 6.92 µg/mL) in data set [1] (pH 7.4, aqueous buffer, pure compound, KRB buffer pH 7.4, 37 °C, absence of HP-β-CD, read-out: intrinsic solubility (S0)); 720 ± 40 µM (≈ 156 µg/mL) in data set [1] (pH 7.4, aqueous with cosolvent or surfactant or cyclodextrin, aqueous solubility with 70 mM HP-β-CD in plant extract, marker in EBGT, 70 mM HP-β-CD, KRB pH 7.4, 37 °C); 930 ± 7 µM (≈ 201 µg/mL) in data set [1] (pH 7.4, aqueous with cosolvent or surfactant or cyclodextrin, aqueous solubility with 70 mM HP-β-CD, pure compound, 70 mM HP-β-CD, KRB pH 7.4, 37 °C). Further, the “complexation efficiency (CE) with HP-β-CD in EBGT” value in data set [1] (marker in EBGT plant extract) is recorded as 0.010 ± 0.001. Besides, the “intrinsic solubility (S0) in EBGT” value in data set [1] (marker in EBGT plant extract (9.0 mg/mL), KRB pH 7.4, 37 °C, absence of HP-β-CD) worked out at 40 ± 2 µM. In addition, the “Kc (stability constant) with HP-β-CD in EBGT” value in data set [1] (marker in EBGT plant extract, KRB pH 7.4, 37 °C) came to 251.2 ± 1.4 M⁻¹. For the same molecule, the solubility increase in data set [1] (marker in EBGT, 70 mM HP-β-CD vs no HP-β-CD) is reported as 18 fold. In addition, the “complexation efficiency (CE) with HP-β-CD” value in data set [1] (pure compound) was 0.014 ± 0.001. For the same molecule, the “phase solubility diagram profile (Higuchi-Connors)” value in data set [1] (pure compound with HP-β-CD, indicates 1:1 complex) is given as “AL type”. Moreover, the “intrinsic solubility (S0)” value in data set [1] (pure compound, KRB buffer pH 7.4, 37 °C, absence of HP-β-CD) was determined as 30 ± 1 µM. Moreover, the “Kc (stability constant) of HP-β-CD inclusion complex” value in data set [1] (pure compound, KRB pH 7.4, 37 °C, 1:1 complex) is 449.9 ± 16.6 M⁻¹ and < 500 M⁻¹. Further, the apparent permeability (Papp) at 120 min in data set [2] (setting [7]) turned out to be 3.04 ± 1.19 ×10⁻⁶ cm/s; in data set [2] (setting [8]), 10.7 ± 1.73 ×10⁻⁶ cm/s; in data set [2] (setting [9]) it was 2.05 ± 0.81 ×10⁻⁶ cm/s; in data set [2] (setting [10]) it was 11.2 ± 3.28 ×10⁻⁶ cm/s; in data set [5] it was 7.8 ± 1.91 ×10⁻⁶ cm/s. The “permeability rate decrease after adding HP-β-CD” value was found to be 4 fold with rat jejunum [3] (EBGT markers) and 6 fold in the data set with rat jejunum [3] (pure standards). For the same molecule, the AUC in data set [4] (EBGT in HP-β-CD 70 mM solution, dose 0.12 mg/kg) was 377 ng·h/mL; in data set [4] (EBGT uncomplexed, dose 1.5 g/kg), 516 ng·h/mL.
Regarding `COCCc1ccc(OCC(O)CNC(C)C)cc1` (centres unmarked) [metoprolol], in the data set with rat jejunum [6], the apparent permeability (Papp) was 6.21 ± 2.63 × 10^−6 cm/s.
Turning to `CC(O)COC[C@H]1O[C@@H]2O[C@H]3[C@H](O)[C@@H](O)[C@@H](O[C@H]4[C@H](O)[C@@H](O)[C@@H](O[C@H]5[C@H](O)[C@@H](O)[C@@H](O[C@H]6[C@H](O)[C@@H](O)[C@@H](O[C@H]7[C@H](O)[C@@H](O)[C@@H](O[C@H]8[C@H](O)[C@@H](O)[C@@H](O[C@H]1[C@H](O)[C@H]2O)O[C@@H]8COCC(C)O)O[C@@H]7COCC(C)O)O[C@@H]6COCC(C)O)O[C@@H]5COCC(C)O)O[C@@H]4COCC(C)O)O[C@@H]3COCC(C)O` (stereo partly drawn) [HP-β-CD, 2-hydroxypropyl-β-cyclodextrin], the TEER after incubation with jejunal tissue (20% (w/w) HP-β-CD, 120 min, 37 °C, n = 16, control KRB 32 ± 9, p = 0.99) is reported as 29 ± 7 Ω·cm^2. In the data set on jejunal tissue (HP-β-CD at high concentration (20% w/w)), the “effect on viability of jejunal tissue” value was “does not affect the viability of jejunal tissue”.
Regarding `O=c1ccc2cc3ccoc3cc2o1` [PSO, Psoralen], the apparent permeability coefficient (Papp) at 120 min in data set [2] (setting [7]) was 3.86 ± 1.81 ×10⁻⁶ cm/s; in data set [2] (setting [8]), 17.6 ± 1.35 ×10⁻⁶ cm/s; in data set [2] (setting [9]), 3.82 ± 0.62 ×10⁻⁶ cm/s; in data set [2] (setting [10]) it was 21.4 ± 3.81 ×10⁻⁶ cm/s; in data set [5], 20.5 ± 2.82 ×10⁻⁶ cm/s. Moreover, the “permeability rate decrease after adding HP-β-CD” value in the data set on rat jejunum [3] (EBGT markers) is 4 fold; in the data set on rat jejunum [3] (pure standards), 6 fold.
